Experimental data published in PubChem BioAssay (NCI).
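Interpolation was linear, between the two tested concentrations surrounding the appropriate level; five concentrations were tested over 48 hours in 96-well plates. GI50 = concentration required for 50% inhibition of growth. TGI: total growth inhibition.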

Legend:
Assay in all cases: NCI-60 cell line screen, 48 h
EKVX NSCLC = test system: EKVX NSCLC
HCT-15 colon = test system: HCT-15 colon
SF-268 CNS = test system: SF-268 CNS
K-562 leukemia = test system: K-562 leukemia
COLO 205 colon = test system: COLO 205 colon
MDA-MB-231 breast = test system: MDA-MB-231 breast
SF-295 CNS = test system: SF-295 CNS
786-0 renal = test system: 786-0 renal
TK-10 renal = test system: TK-10 renal
OVCAR-8 ovarian = test system: OVCAR-8 ovarian
SF-539 CNS = test system: SF-539 CNS
M14 melanoma = test system: M14 melanoma
NCI-H460 lung = test system: NCI-H460 lung
NCI-H522 lung = test system: NCI-H522 lung
HCC-2998 colon = test system: HCC-2998 colon
NCI-H23 lung = test system: NCI-H23 lung
CCRF-CEM leukemia = test system: CCRF-CEM leukemia
NCI-H226 lung = test system: NCI-H226 lung
HCT-116 colon = test system: HCT-116 colon
UACC-62 melanoma = test system: UACC-62 melanoma
NCI/ADR-RES ovarian = test system: NCI/ADR-RES ovarian
OVCAR-5 ovarian = test system: OVCAR-5 ovarian
KM12 colon = test system: KM12 colon
PC-3 prostate = test system: PC-3 prostate
SN12C renal = test system: SN12C renal
HOP-62 NSCLC = test system: HOP-62 NSCLC
U251 CNS = test system: U251 CNS
MOLT-4 leukemia = test system: MOLT-4 leukemia
HS 578T breast = test system: HS 578T breast
UO-31 renal = test system: UO-31 renal
IGROV1 ovarian = test system: IGROV1 ovarian
RXF 393 renal = test system: RXF 393 renal
SK-MEL-28 melanoma = test system: SK-MEL-28 melanoma
T-47D breast = test system: T-47D breast
LOX IMVI melanoma = test system: LOX IMVI melanoma
DU-145 prostate = test system: DU-145 prostate
SW-620 colon = test system: SW-620 colon
MALME-3M melanoma = test system: MALME-3M melanoma
MDA-MB-435 = test system: MDA-MB-435
OVCAR-4 ovarian = test system: OVCAR-4 ovarian
UACC-257 melanoma = test system: UACC-257 melanoma
MCF7 breast = test system: MCF7 breast
RPMI-8226 leukemia = test system: RPMI-8226 leukemia
SK-MEL-5 melanoma = test system: SK-MEL-5 melanoma
A498 renal = test system: A498 renal
OVCAR-3 ovarian = test system: OVCAR-3 ovarian
SK-OV-3 ovarian = test system: SK-OV-3 ovarian
A549 NSCLC = test system: A549 NSCLC
HOP-92 NSCLC = test system: HOP-92 NSCLC
BT-549 breast = test system: BT-549 breast
CAKI-1 renal = test system: CAKI-1 renal
SK-MEL-2 melanoma = test system: SK-MEL-2 melanoma
ACHN renal = test system: ACHN renal
HT29 colon = test system: HT29 colon

COc1ccc(N(/C=C/C(=O)C(F)(F)F)CC(=O)c2ccc(Cl)c(Cl)c2)cc1
GI50 (EKVX NSCLC): 13.2 µM | TGI (EKVX NSCLC): 27.6 µM | GI50 (HCT-15 colon): 7.66 µM | TGI (HCT-15 colon): 21.4 µM | GI50 (SF-268 CNS): 11.3 µM | TGI (SF-268 CNS): 30.3 µM | GI50 (K-562 leukemia): 4.07 µM | TGI (K-562 leukemia): > 100 µM | GI50 (COLO 205 colon): 20.2 µM | TGI (COLO 205 colon): 39.6 µM | GI50 (MDA-MB-231 breast): 14.4 µM | TGI (MDA-MB-231 breast): 38.6 µM | GI50 (SF-295 CNS): 14.5 µM | TGI (SF-295 CNS): 28.6 µM | GI50 (786-0 renal): 15.5 µM | TGI (786-0 renal): 29.5 µM | GI50 (TK-10 renal): 13.7 µM | TGI (TK-10 renal): 27.1 µM | GI50 (OVCAR-8 ovarian): 13.2 µM | TGI (OVCAR-8 ovarian): 36.6 µM | GI50 (SF-539 CNS): 16.1 µM | TGI (SF-539 CNS): 30.3 µM | GI50 (M14 melanoma): 12.7 µM | TGI (M14 melanoma): 25.6 µM | GI50 (NCI-H460 lung): 6.73 µM | TGI (NCI-H460 lung): 27.3 µM | GI50 (NCI-H522 lung): 19.4 µM | TGI (NCI-H522 lung): 43.7 µM | GI50 (HCC-2998 colon): 18.5 µM | TGI (HCC-2998 colon): 32.5 µM | GI50 (NCI-H23 lung): 17.5 µM | TGI (NCI-H23 lung): 32.3 µM | GI50 (CCRF-CEM leukemia): 3.39 µM | TGI (CCRF-CEM leukemia): 18.3 µM | GI50 (NCI-H226 lung): 18.5 µM | TGI (NCI-H226 lung): 37.9 µM | GI50 (HCT-116 colon): 9.94 µM | TGI (HCT-116 colon): 21.5 µM | GI50 (UACC-62 melanoma): 8.75 µM | TGI (UACC-62 melanoma): 22.8 µM | GI50 (NCI/ADR-RES ovarian): 19 µM | TGI (NCI/ADR-RES ovarian): 39.3 µM | GI50 (OVCAR-5 ovarian): 16.5 µM | TGI (OVCAR-5 ovarian): 30.2 µM | GI50 (KM12 colon): 11.6 µM | TGI (KM12 colon): 37.3 µM | GI50 (PC-3 prostate): 8.33 µM | TGI (PC-3 prostate): 28.3 µM | GI50 (SN12C renal): 14.5 µM | TGI (SN12C renal): 33.5 µM | GI50 (HOP-62 NSCLC): 16.9 µM | TGI (HOP-62 NSCLC): 30.9 µM | GI50 (U251 CNS): 12.2 µM | TGI (U251 CNS): 25.3 µM | GI50 (MOLT-4 leukemia): 3.9 µM | TGI (MOLT-4 leukemia): > 100 µM | GI50 (HS 578T breast): 4.81 µM | TGI (HS 578T breast): 14.6 µM | GI50 (UO-31 renal): 24.1 µM | TGI (UO-31 renal): > 100 µM | GI50 (IGROV1 ovarian): 22.8 µM | TGI (IGROV1 ovarian): 60.9 µM | GI50 (RXF 393 renal): 36.3 µM | TGI (RXF 393 renal): > 100 µM | GI50 (SK-MEL-28 melanoma): 28.1 µM | TGI (SK-MEL-28 melanoma): 79.4 µM | GI50 (T-47D breast): 18.9 µM | TGI (T-47D breast): 48.3 µM | GI50 (LOX IMVI melanoma): 11.8 µM | TGI (LOX IMVI melanoma): 27.4 µM | GI50 (DU-145 prostate): 11.3 µM | TGI (DU-145 prostate): 24.6 µM | GI50 (SW-620 colon): 27 µM | TGI (SW-620 colon): > 100 µM | GI50 (MALME-3M melanoma): 39.7 µM | TGI (MALME-3M melanoma): > 100 µM | GI50 (MDA-MB-435): 12.1 µM | TGI (MDA-MB-435): 25.4 µM | GI50 (OVCAR-4 ovarian): 32 µM | TGI (OVCAR-4 ovarian): > 100 µM | GI50 (UACC-257 melanoma): 16.7 µM | TGI (UACC-257 melanoma): 35.4 µM | GI50 (MCF7 breast): 5.11 µM | TGI (MCF7 breast): 28.9 µM | GI50 (RPMI-8226 leukemia): 5.56 µM | TGI (RPMI-8226 leukemia): 56.6 µM | GI50 (SK-MEL-5 melanoma): 7 µM | TGI (SK-MEL-5 melanoma): 20.4 µM | GI50 (A498 renal): 10.1 µM | TGI (A498 renal): 22.2 µM | GI50 (OVCAR-3 ovarian): 15.6 µM | TGI (OVCAR-3 ovarian): 29.3 µM | GI50 (SK-OV-3 ovarian): 20.1 µM | TGI (SK-OV-3 ovarian): 39.7 µM | GI50 (A549 NSCLC): 17.7 µM | TGI (A549 NSCLC): 68 µM | GI50 (HOP-92 NSCLC): 13.2 µM | TGI (HOP-92 NSCLC): 41.8 µM | GI50 (BT-549 breast): 7.57 µM | TGI (BT-549 breast): 22 µM | GI50 (CAKI-1 renal): 15.6 µM | TGI (CAKI-1 renal): 34.7 µM | GI50 (SK-MEL-2 melanoma): 19.6 µM | TGI (SK-MEL-2 melanoma): 44 µM | GI50 (ACHN renal): 12.2 µM | TGI (ACHN renal): 25.1 µM | GI50 (HT29 colon): 29.8 µM | TGI (HT29 colon): > 100 µM
